# Measurements as given in patent publication US20130165368A1, “ANTIMICROBIAL COMPOUNDS” (priority 2010, published 2013).
# Where two headings read alike, the source gives them in different places.
# Experiments:
# Type in all cases: cell-based
# [1] = test system: Staphylococcus aureus (MRSA); assay: MIC agar dilution, micro-organism 12 (11939); settings: Staphylococcus aureus (MRSA) 11939
# Summary of the method: (§1)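 Twofold dilutions of compound emulsions in water were set in Isosensitest agar with Brazier's CCEY medium, egg yolk and lysed horse blood. Spots of 1 µL from 0.5 McFarland suspensions diluted 1/15 were incubated aerobically at 37 °C and read at 22 and 48 h. MIC (mmol/L) was the lowest concentration giving <10 colonies.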
# [2] = test system: Listeria monocytogenes; assay: MIC agar dilution, micro-organism 15 (11994); settings: Listeria monocytogenes 11994
# Summary of the method: as §1
# [3] = test system: Bacillus subtilis; assay: MIC agar dilution, micro-organism 18 (9372); settings: Bacillus subtilis 9372
# Summary of the method: as §1
# [4] = test system: Gram negative bacteria, Gram positive bacteria and pathogenic yeasts; assay: MIC agar dilution, summary statements over the micro-organisms tested (Tables I, IX)
# Description: For a better understanding, the present invention will now be more particularly described, by way of non-limiting example only, as follows. The micro-organisms shown in Table I overleaf were acquired from the National Collection of Type Cultures (NCTC), Colindale, United Kingdom; the American Type Culture Collection (ATCC), Manassas, United States and the National Collection of Pathogenic Fungi (NCPF), Colindale, United Kingdom. They include Gram negative bacteria, Gram positive bacteria and pathogenic yeasts.
# Throughout the period of testing the microbial strains were subcultured and incubated for 18-20 hours at 37° C. on a weekly basis. Horse blood agar plates were used to sustain the micro-organisms both prior to and throughout testing. The alkoxylated alkanols listed in Table II below were obtained (these are obtainable from Sigma-Aldrich Company Ltd, Dorset, England), each having a GC purity of at least 97%.
# (§2) Molar equivalent concentrations were used to allow comparison between compounds of differing molecular mass. Due to weighing difficulties, any compound in solid form was melted in a water bath prior to dilution. To make ten-times strength concentrations, which takes into account agar dilution, 0.0352 mmol of each compound was weighed into plastic universal bottles and 4 mL of sterile distilled water (SDW) was added. To produce a homogenous emulsion the universals were vortexed; once achieved the emulsions were serial diluted by adding 2 mL to 2 mL of SDW.
# Myristyl alcohol and lauryl alcohol were re-weighed and dissolved in 25 μL of the polar solvent 1-methyl-2-pyrrolidone (M6762; Sigma-Aldrich) in sterile glass universals due to an inability to achieve an even suspension. To maintain an even emulsion in the presence of SDW 37.5 μL of the non-ionic detergent Tween 20 (P1379, Sigma-Aldrich) was also added. 3.9375 mL of SDW was added to these, to create a 4 mL volume; they were vortexed and diluted as before.
# (§3) For every 100 mL of Isosensitest agar (IST) (CM0471; Oxoid, Basingstoke, England), 3.1 g of the IST powder was added to 100 mL SDW (as per manufacturer's instructions) and sterilised for 15 minutes at 121° C. Once sterilised, the molten agar was cooled to 50° C. in a water-bath. Subsequently 4.8 g of CCEY powder (BC2160; Bioconnections, Wetherby, England), also known as Brazier's medium, was added to 100 mL SDW for every 100 mL of agar needed. This was then sterilised for 15 minutes at 121° C. Once sterilised the molten agar was cooled to 50° C. in a water-bath and 4 mL of egg-yolk emulsion (S2073; TCS Biosciences Ltd, Buckingham, United Kingdom) and 1 mL of lysed defibrinated horse blood (HB035; TCS Biosciences Ltd, Buckingham, United Kingdom) were also added for every 100 mL needed. Horse blood lysis is achieved by dilution to half concentration with SDW; when fully lysed the mixture will turn dark red in colour.
# (§4) 18 mL agar was added to each universal and then poured into sterile Petri dishes. This step creates a 1/10 dilution resulting in agar plates of the required strength. Control plates for each set of strains were created by adding 18 mL of agar to 2 mL of SDW.
# (§5) Suspensions of each bacterial species were prepared with a density equal to that of a 0.5 McFarland standard using a densitometer. All suspensions were made using sterile distilled water and fresh 18-20 hour cultures. As a 0.5 McFarland standard contains 1.5×10^8 CFU/mL and the multipoint inoculators applies 1 μL spots of liquid, each bacterial suspension was diluted 1/15 (20 μL suspension to 280 μL sterile distilled water).
# Bacterial suspensions were prepared from fresh 18-24 hour cultures as previously described. 1 μL of each strain was inoculated onto all 100 agar plates containing a different chemical concentration and the 2 control plates. This was done using a multipoint inoculator which inoculates 20 strains per plate. All plates were incubated for 22 hours at 37° C. in aerobic conditions. […]
# [5] = test system: Enterococcus faecium (VRE) 255693 N. Tyneside; assay: MIC agar dilution, VRE strain 22
# Description: as §2, §3, §4, §5
# (§6) Bacterial suspensions were prepared from fresh 18-24 hour cultures as previously described. 1 μL of each strain was inoculated onto all 100 agar plates containing a different chemical concentration and the 2 control plates. This was done using a multipoint inoculator which inoculates 20 strains per plate. All plates were incubated for 22 hours at 37° C. in aerobic conditions.
# (§7) Each plate was examined for bacterial growth after 22 and 48 hours, with each being incubated in between examinations. A positive result was recorded as growth of ≧10 colonies. A negative result was recorded as growth of <10 colonies as this is equivalent to 99.9% inhibition. The lowest concentration of chemical that inhibited growth was recorded as the MIC. The results are recorded in Table IV below, where the numbers are quoted in mmol/L.
# (§8) Given the positive performance of the ethoxylates of lauryl alcohol in reducing the MIC for a number of the micro-organisms tested, further MIC testing of Laureth-1 [C12E1] through to Laureth-8 [C12E8] was conducted on each of the following: • 10 strains of vancomycin-resistant enterococci (VRE)—listed in Table V below; and • 20 strains of methicillin-resistant Staphylococcus aureus (MRSA)—listed in Table VI.
# (§9) The alkanol, alkanol derivatives, agar plates, and inocula were all prepared in the same way as described above.
# (§10) The plates were examined in the same manner as described above and the results are recorded in Table VII below, where the numbers are quoted in mmol/L.
# [6] = test system: Enterococcus faecalis (VRE) MB 726; assay: MIC agar dilution, VRE strain 28
# Description: as §2, §3, §4, §5, §6, §7, §8, §9, §10
# [7] = test system: MRSA FIN 54518 (E7); assay: MIC agar dilution, MRSA strain 31; settings: Staphylococcus aureus
# Description: as §2, §3, §4, §5, §6, §7, §8, §9, §10
# [8] = test system: MRSA BEL 97597; assay: MIC agar dilution, MRSA strain 33; settings: Staphylococcus aureus
# Description: as §2, §3, §4, §5, §6, §7, §8, §9, §10
# [9] = test system: MRSA EMRSA 16 00998/95; assay: MIC agar dilution, MRSA strain 47; settings: Staphylococcus aureus
# Description: as §2, §3, §4, §5, §6, §7, §8, §9, §10
# [10] = Staphylococcus aureus, MRSA, 22 h, 22 hrs, read-out: MIC
# [11] = Staphylococcus aureus, MRSA, 48 h, 48 hrs, read-out: MIC
SMILES,"MIC [1, 10] [µM]","MIC [1, 11] [µM]","MIC ([2]; 22 hrs, read-out: MIC) [µM]","MIC ([2]; 48 hrs, read-out: MIC) [µM]","MIC ([3]; 22 hrs, read-out: MIC) [µM]","MIC ([3]; 48 hrs, read-out: MIC) [µM]",MIC ([5]; 22 hrs) [µM],MIC ([5]; 48 hrs) [µM],MIC ([6]; 22 hrs) [µM],MIC ([6]; 48 hrs) [µM],MIC ([7]; 22 hrs) [µM],MIC ([7]; 48 hrs) [µM],MIC ([8]; 22 hrs) [µM],MIC ([8]; 48 hrs) [µM],MIC ([9]; 22 hrs) [µM],MIC ([9]; 48 hrs) [µM],MIC ([4]; read-out: MIC) [µM],further results
"CCCCCCCCCCCCCCCCO [C0, 1-Hexadecanol, reference compound]",> 880,> 880,> 880,> 880,> 880,> 880,–,–,–,–,–,–,–,–,–,–,–,–
"CCCCCCCCCCCCCOCCOCCOCCOCCOCCOCCO [C13E6, polyoxyethylene (6) tridecyl alcohol]",–,–,–,–,–,–,–,–,–,–,–,–,–,–,–,–,–,MIC ([1]; 22 hrs): 110 µM; MIC ([1]; 48 hrs): 110 µM; MIC ([2]; 22 hrs): >880 µM; MIC ([2]; 48 hrs): >880 µM; MIC ([3]; 22 hrs): 110 µM; MIC ([3]; 48 hrs): 110 µM; MIC ([4]; over the micro-organisms tested or some of them): less than 0.88 mmol/L
"CCCCCCCCCCCCOCCO [L1, Ethylene Glycol Monododecyl Ether]",440,440,440,880,440,440,440,440,440,440,220,440,220,220,220,220,≤ 440,–
"CCCCCCCCCCCCOCCOCCO [L2, Diethylene Glycol Monododecyl Ether]",110,110,220,220,110,220,440,440,220,220,220,220,110,110,110,110,–,–
"CCCCCCCCCCCCOCCOCCOCCO [L3, Triethylene Glycol Monododecyl Ether]",110,110,110,220,110,110,880,> 880,220,220,220,440,55,55,55,55,~110,–
"CCCCCCCCCCCCOCCOCCOCCOCCO [L4, Tetraethylene Glycol Monododecyl Ether]",110,110,110,220,110,110,440,880,220,220,220,440,55,55,55,55,~110,–
"CCCCCCCCCCCCOCCOCCOCCOCCOCCO [L5, Pentaethylene Glycol Monododecyl Ether]",110,220,110,220,110,110,220,220,220,220,440,440,110,110,110,110,~110,–
"CCCCCCCCCCCCOCCOCCOCCOCCOCCOCCO [L6, Hexaethylene Glycol Monododecyl Ether]",110,110,110,110,110,110,440,> 880,> 880,> 880,> 440,> 440,110,110,220,440,~110,–
"CCCCCCCCCCCCOCCOCCOCCOCCOCCOCCOCCO [L7, Heptaethylene Glycol Monododecyl Ether]",–,–,220,220,110,110,> 880,> 880,> 880,> 880,> 440,> 440,220,220,> 440,> 440,–,"MIC ([1]; 22 hrs, read-out: MIC): 220 µM; MIC ([1]; 48 hrs, read-out: MIC): 220 µM"
"CCCCCCCCCCCCOCCOCCOCCOCCOCCOCCOCCOCCO [L8, Octaethylene Glycol Monododecyl Ether]",220,440,440,> 880,110,110,> 880,> 880,880,> 880,> 440,> 440,220,> 440,> 440,> 440,–,–
